Counter-ions that a name gives are not always drawn.

One data set deals with SKOV3 cells. Briefly: cytotoxicity on SKOV3 cells (FIG. 8). The format is cell-based. The note with it: Homo sapiens, SK-OV-3, 72 h; SKOV3, 3 day incubation.
In a further data set the test system is C-4 cells. Briefly: cytotoxicity on C-4 cells (FIG. 8). Conditions: 72 h; C-4, 3 day incubation. The format is cell-based. Here is the method:
A wide range of drug concentrations were exposed to tumour cells growing at log phase in 96-well microtitre plates. Cell concentrations depended on the cell line as well as the length of time to be cultured. Typically, P388 cells were plated at a concentration of 30,000, 2,000 and 750 cells per well for studies lasting 1, 3 and 7 days, respectively MCF7 cells were plated at a concentration of 7,000 and 1,500 cells per well for studies lasting 3 and 7 days, respectively. H460 cells were plated at a concentration of 2,500 and 1,000 cells per well for studies lasting 3 and 7 days, respectively. K562 cells were plated at a concentration of 1,500 and 10,000 cells per well for studies lasting 1 and 3 days, respectively. LS180 cells were plated at a concentration of 5,000 and […] cells per well for studies lasting 3 and 7 days, respectively. After plating all cell lines were incubated (CO2 incubator at 37° C., 5% CO2) for 24 hours prior to addition of the cytotoxic agent (See Table 1). Subsequently the plates were incubated for the indicated time period. […] After the sample was mixed through repeated pipetting, the colored product was measured using a plate reader operating at 570 nm. The absorbance values obtained for cells cultured in the absence of drug was assumed to represent 100% viability. […]

The test system of data set [1] is non-small cell lung cancer. Conditions: patients; cited from earlier work.
A further data set concerns L1210 leukemia. The note with it: cited from earlier work.
The subject of another data set is murine P388 leukemia. Conditions: cited from earlier work.
The subject of a further data set is nerves. Conditions: vs vinblastine, vindesine; cited from earlier work.
The next data set has as its system tumour. Conditions: alkaloids extracted from Vinca rosea; cited from earlier work.
The conditions of data set [2]: relative to other vinca alkaloids; cited from earlier work.

For `CCC1=CC2CN(CCc3c([nH]c4ccccc34)C(C(=O)OC)(c3cc4c(cc3OC)N(C)C3C(O)(C(=O)OC)C(OC(C)=O)C5(CC)C=CCN6CCC43C65)C2)C1` (centres unmarked) [AHVB, 3',4'-anhydrovinblastine], the values for the IC50 in the data set on SKOV3 cells and in the data set on C-4 cells were 4000 nM and 20 nM, respectively.
As for `CCC1=C[C@@H]2CN(C1)Cc1c([nH]c3ccccc13)[C@@](C(=O)OC)(c1cc3c(cc1OC)N(C)[C@H]1[C@@](O)(C(=O)OC)[C@H](OC(C)=O)[C@]4(CC)C=CCN5CC[C@]31[C@@H]54)C2` [navelbine, 3',4'-didehydro-4'-deoxy-C'-norvincaleukoblastine-di-L-tartrate], in data set [1], the “clinical utility in non-small cell lung cancer” value was “support its utility in treating non-small cell lung cancer”. For the same molecule, the “potency against L1210 leukemia” value in the data set with L1210 leukemia was “less potent than vinbiastine and vincristine”. Besides, the “potency against murine P388 leukemia” value in the data set with murine P388 leukemia was “less potent than vinbiastine and vincristine”.
For the molecule `CC[C@]1(O)C[C@H]2CN(CCc3c([nH]c4ccccc34)[C@@](C(=O)OC)(c3cc4c(cc3OC)N(C=O)[C@H]3[C@@](O)(C(=O)OC)[C@H](OC(C)=O)[C@]5(CC)C=CCN6CC[C@]43[C@@H]65)C2)C1` [vincristine, Sulfate of 22-oxovincaleukoblastine], the “uptake into nerves, times faster than the other drugs” value in the data set with nerves was 4 times. For the same molecule, in the data set on tumour, the antitumour activity entry is reported as “significant antitumour activity”. Moreover, the “terminal elimination phase of plasma clearance” value in data set [2] is given as “extended terminal elimination phase of plasma clearance”.

The values above are taken from patent US6011041A, “Use of anhydrovinblastine” (priority 1996, dated 2000).
